The text below walks through data of patent US6579880B2, “Isoxazoles and oxadiazoles as anti-inflammatory inhibitors of IL-8” (Ortho-McNeil Pharmaceutical, Inc., priority 2000, dated 2003).

The term IC50 denotes the concentration that gives 50% inhibition.

One experiment has as its system IL-8 receptor (purified human neutrophils). As to the kind of experiment: radio labeled IL-8 receptor binding assay in purified human neutrophils using I125-IL-8 as ligand. Conditions: Table 1; inhibition of I125-IL-8 (0.125 nM) binding to human neutrophils, 37° C. 60 minutes; read-out: IC50. The procedure: Neutrophils are purified from fresh human blood by dextran sedimentation in an equal volume of 3% dextran in saline for 30 minutes. After sedimentation, the blood is centrifuged for 10 minutes at 1000 rpm at 4° C. and the supernate is aspirated and discarded. […] Ten mls ficoll is underlaid of the blood and the sample is centrifuged for 40 minutes at 1400 rpm at 25° C. After centrifugation, the supernate is removed and the cells re-suspended for cell counting. Cell volume is adjusted to 8×10^5 cells/ml in binding buffer without BSA.
The plates are then incubated at 37° C. for 60 minutes and the supernate is aspirated to within 2 mm of the bottom of the well. The plates are then sealed and counted for 1 minute in a Packard TopCount.
Drug treated wells are compared to vehicle treated wells for inhibition of binding as determined by a decrease in dpm as compared to the vehicle wells.
% Inhibition is calculated as follows: [formula]
IC50 is calculated using K-Graph.
As for `CN1CCN(CCCOc2ccc(-c3cc(-c4ccc(C(C)(C)C)cc4)no3)cc2)CC1` [Compound 4, piperazine, 1-[3-[4-[3-[4-(1,1-dimethylethyl)phenyl]-5-isoxazolyl]phenoxy]propyl]-4-methyl-], the IC50 was determined as 2.7 µM.
Same read-out and setting: the figure for `CN1CCN(CCCOc2ccc(-c3cc(-c4ccc(Cl)c(C(F)(F)F)c4)no3)cc2)CC1` [Compound 8, piperazine, 1-[3-[4-[3-[4-chloro-3-(trifluoromethyl)phenyl]-5-isoxazolyl]phenoxy]propyl]-4-methyl-] is 2.7 µM; for `Clc1ccc(-c2noc(-c3ccc(OCCCN4CCNCC4)cc3)n2)cc1` [Compound 15, piperazine, 1-[3-[4-[3-(4-chlorophenyl)-1,2,4-oxadiazol-5-yl]phenoxy]propyl]-] it is 2.8 µM.

The same experiment, now with this note: Table 2; inhibition of I125-IL-8 (0.125 nM) binding to human neutrophils, 37° C. 60 minutes; read-out: IC50.
Regarding `Cc1ccc(-c2cc(-c3ccc(OCCCN(C)C)cc3)no2)cc1` [Compound 19], the IC50 turned out to be 5.1 µM.
The same measure, in the same setting: as for `CN(C)CCCOc1ccc(-c2cc(-c3ccc(Cl)cc3)on2)cc1` [Compound 21, 1-propanamine, 3-[4-[5-(4-chlorophenyl)-3-isoxazolyl]phenoxy]-N, N-dimethyl-], the figure is 2.7 µM.
Take `CN(C)CCCOc1ccc(-c2cc(-c3ccc(F)cc3)on2)cc1` [Compound 22]: the IC50 was determined as 3.1 µM.
Still for that read-out and setting: the figure for `CN1CCN(CCCOc2ccc(-c3cc(-c4ccccc4)on3)cc2)CC1` [Compound 25] is 6.2 µM; for `CN1CCN(CCCOc2ccc(-c3cc(-c4ccc(Cl)cc4)on3)cc2)CC1` [Compound 27, piperazine, 1-[3-[4-[5-(4-chlorophenyl)-3-isoxazolyl]phenoxy]propyl]-4-methyl-] it is 1.6 µM; for `CN(C)CCCOc1ccc(-c2noc(-c3ccccc3)c2Br)cc1` [Compound 28] it is 10.9 µM.
With `CN(C)CCCOc1ccc(-c2noc(-c3ccccc3)c2Cl)cc1` [Compound 29], the IC50 is 6 µM.
On the same count and under the same terms, the figure for `CN(C)CCCOc1cccc(-c2cc(-c3ccc(Cl)cc3)on2)c1` [Compound 32] is 8.1 µM.
Same read-out and setting: the figure for `Cc1ccc(-c2cc(-c3cccc(OCCCN(C)C)c3)no2)cc1` [Compound 33] is 5.1 µM; for `CN(C)CCCOc1cccc(-c2cc(-c3ccccc3)on2)c1` [Compound 34] it is 10.3 µM.
The same measure, in the same setting: as for `CN1CCN(CCCOc2ccccc2-c2cc(-c3ccccc3)on2)CC1` [Compound 35], the figure is 12.1 µM; as for `CN1CCN(CCCOc2ccccc2-c2cc(-c3ccc(Cl)cc3)on2)CC1` [Compound 36], 5.6 µM.
As for `CCN(CC)CCCOc1ccccc1-c1cc(-c2ccccc2)on1` [Compound 37], the IC50 came out at 6.5 µM.
On the same count and under the same terms, the figure for `CN(C)CCCOc1ccccc1-c1cc(-c2ccc(Cl)cc2)on1` [Compound 38] is 4.4 µM.
On the same count and under the same terms, as for `CN1CCN(CCCCOc2ccc(-c3cc(-c4ccc(Cl)cc4)on3)cc2)CC1` [Compound 39], the figure is 8.9 µM; as for `CN(C)CCCCOc1ccc(-c2cc(-c3ccc(Cl)cc3)on2)cc1` [Compound 40], 3.9 µM.
Same read-out and setting: the figure for `CN1CCN(CCCCOc2ccccc2-c2cc(-c3ccc(Cl)cc3)on2)CC1` [Compound 41] is 11 µM.

Still in this experiment, the particulars now being: Table 3; inhibition of I125-IL-8 (0.125 nM) binding to human neutrophils, 37° C. 60 minutes; read-out: IC50.
Consider `CN1CCCC(COc2ccc(-c3cc(-c4ccccc4)on3)cc2)C1` (stereo not shown) [Compound 43], for which the IC50 worked out at 5.3 µM.
On to `CN1CCC(Oc2ccc(-c3cc(-c4ccccc4)on3)cc2)CC1` [Compound 44], for which the IC50 amounted to 7.6 µM.

The same experiment, now with this note: Table 4; inhibition of I125-IL-8 (0.125 nM) binding to human neutrophils, 37° C. 60 minutes; read-out: IC50.
With `CN(C)CCCNC(=O)c1ccc(-c2cc(-c3ccc(Cl)cc3)on2)cc1` [Compound 45], the IC50 worked out at 5.8 µM.
The same measure, in the same setting: as for `CN1CCN(CCCNC(=O)c2ccc(-c3cc(-c4ccc(Cl)cc4)on3)cc2)CC1` [Compound 46], the figure is 6.1 µM; as for `COc1ccc(-c2cc(-c3ccc(C(=O)NCCCN(C)C)cc3)no2)cc1` [Compound 48], 18.1 µM.

The same experiment, now with this note: Table 6; inhibition of I125-IL-8 (0.125 nM) binding to human neutrophils, 37° C. 60 minutes; read-out: IC50.
As for `CN(C)CCCNc1ccc(-c2nc(-c3ccc(Cl)cc3)no2)cn1` [Compound 54, 1,3-propanediamine, N^1-[5-[3-(4-chlorophenyl)-1,2,4-oxadiazol-5-yl]-2-pyridinyl]-N^3, N^3-dimethyl-], the IC50 was 5.35 µM.
Same read-out and setting: as for `CN(C)CCCOc1ccc(-c2nc(-c3ccc(Cl)cc3)no2)cn1` [Compound 55], the figure is 4.78 µM.

The experiment is the same for the next values; noted with them: unlabelled IL-8 as standard in the I125-IL-8 binding assay; read-out: IC50 of standard antagonist.
With “Unlabelled IL-8: Unlabelled IL-8 (Interleukin-8, chemotactic cytokine) serves as the standard antagonist in the binding assay [reference compound]”, the IC50 was about 0.001 µM.
